According to patent US11358949B2, “Carbamate and urea compounds as multikinase inhibitors” (ANGEX PHARMACEUTICAL, INC., priority 2017, dated 2022):

Key:
c-MET = c-MET (Homo sapiens, UniProt P08581); test: HotSpot Kinase Assay, c-MET
PLK4/SAK = PLK4/SAK (Homo sapiens, UniProt O00444); test: HotSpot Kinase Assay, PLK4/SAK
Protocol: Specifically, for each reaction, kinase and substrate were mixed in a pH 7.5 buffer containing 20 mM HEPES, 10 mM MgCl2, 1 mM EGTA [Ethylene glycol-bis(2-aminoethylether)-N,N,N′,N′-tetraacetic acid], 0.02% Brij35, 0.02 mg/mL BSA (Bovine Serum Albumin), 0.1 mM Na3VO4, 2 mM DTT, and 1% DMSO. Compounds were then added to each reaction mixture. After a 20-min incubation, ATP (Sigma-Aldrich) and [γ-^33P] ATP (PerkinElmer) were added at a final total concentration of 100 μM. Reactions were carried out at room temperature for 2 hours and spotted onto P81 ion exchange cellulose chromatography paper (Whatman). […] The percent remaining kinase activity relative to a vehicle-containing (DMSO) kinase reaction was calculated for each kinase/inhibitor pair. […] IC50 values were calculated using Prism 5 (GraphPad).

TYRO3/SKY = target: T1, TYRO3/SKY (Homo sapiens, UniProt Q06418); test: HotSpot Kinase Assay, TYRO3/SKY
T1 sequence (Q06418 41-890): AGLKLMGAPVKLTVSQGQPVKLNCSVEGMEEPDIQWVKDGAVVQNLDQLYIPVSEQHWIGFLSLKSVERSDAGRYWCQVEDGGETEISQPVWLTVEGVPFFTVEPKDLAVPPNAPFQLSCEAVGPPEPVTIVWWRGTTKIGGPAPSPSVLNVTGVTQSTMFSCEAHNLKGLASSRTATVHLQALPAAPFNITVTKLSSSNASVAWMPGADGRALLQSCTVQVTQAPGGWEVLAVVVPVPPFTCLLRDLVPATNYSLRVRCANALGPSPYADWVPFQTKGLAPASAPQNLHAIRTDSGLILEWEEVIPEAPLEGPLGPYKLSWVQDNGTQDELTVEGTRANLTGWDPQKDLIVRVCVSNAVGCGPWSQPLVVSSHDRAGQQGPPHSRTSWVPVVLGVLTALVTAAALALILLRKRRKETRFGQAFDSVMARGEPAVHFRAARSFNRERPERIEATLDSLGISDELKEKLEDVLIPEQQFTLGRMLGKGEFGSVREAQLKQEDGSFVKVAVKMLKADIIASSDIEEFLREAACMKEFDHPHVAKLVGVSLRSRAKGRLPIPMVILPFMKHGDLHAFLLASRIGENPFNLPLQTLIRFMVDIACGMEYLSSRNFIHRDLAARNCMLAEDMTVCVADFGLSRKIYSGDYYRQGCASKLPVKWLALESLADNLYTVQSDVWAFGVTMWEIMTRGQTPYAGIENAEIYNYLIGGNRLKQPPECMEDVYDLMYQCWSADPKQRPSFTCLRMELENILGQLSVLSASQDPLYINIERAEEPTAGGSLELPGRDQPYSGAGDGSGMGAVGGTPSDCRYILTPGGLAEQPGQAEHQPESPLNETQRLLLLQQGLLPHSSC

Sequence of c-MET (P08581 25-1390): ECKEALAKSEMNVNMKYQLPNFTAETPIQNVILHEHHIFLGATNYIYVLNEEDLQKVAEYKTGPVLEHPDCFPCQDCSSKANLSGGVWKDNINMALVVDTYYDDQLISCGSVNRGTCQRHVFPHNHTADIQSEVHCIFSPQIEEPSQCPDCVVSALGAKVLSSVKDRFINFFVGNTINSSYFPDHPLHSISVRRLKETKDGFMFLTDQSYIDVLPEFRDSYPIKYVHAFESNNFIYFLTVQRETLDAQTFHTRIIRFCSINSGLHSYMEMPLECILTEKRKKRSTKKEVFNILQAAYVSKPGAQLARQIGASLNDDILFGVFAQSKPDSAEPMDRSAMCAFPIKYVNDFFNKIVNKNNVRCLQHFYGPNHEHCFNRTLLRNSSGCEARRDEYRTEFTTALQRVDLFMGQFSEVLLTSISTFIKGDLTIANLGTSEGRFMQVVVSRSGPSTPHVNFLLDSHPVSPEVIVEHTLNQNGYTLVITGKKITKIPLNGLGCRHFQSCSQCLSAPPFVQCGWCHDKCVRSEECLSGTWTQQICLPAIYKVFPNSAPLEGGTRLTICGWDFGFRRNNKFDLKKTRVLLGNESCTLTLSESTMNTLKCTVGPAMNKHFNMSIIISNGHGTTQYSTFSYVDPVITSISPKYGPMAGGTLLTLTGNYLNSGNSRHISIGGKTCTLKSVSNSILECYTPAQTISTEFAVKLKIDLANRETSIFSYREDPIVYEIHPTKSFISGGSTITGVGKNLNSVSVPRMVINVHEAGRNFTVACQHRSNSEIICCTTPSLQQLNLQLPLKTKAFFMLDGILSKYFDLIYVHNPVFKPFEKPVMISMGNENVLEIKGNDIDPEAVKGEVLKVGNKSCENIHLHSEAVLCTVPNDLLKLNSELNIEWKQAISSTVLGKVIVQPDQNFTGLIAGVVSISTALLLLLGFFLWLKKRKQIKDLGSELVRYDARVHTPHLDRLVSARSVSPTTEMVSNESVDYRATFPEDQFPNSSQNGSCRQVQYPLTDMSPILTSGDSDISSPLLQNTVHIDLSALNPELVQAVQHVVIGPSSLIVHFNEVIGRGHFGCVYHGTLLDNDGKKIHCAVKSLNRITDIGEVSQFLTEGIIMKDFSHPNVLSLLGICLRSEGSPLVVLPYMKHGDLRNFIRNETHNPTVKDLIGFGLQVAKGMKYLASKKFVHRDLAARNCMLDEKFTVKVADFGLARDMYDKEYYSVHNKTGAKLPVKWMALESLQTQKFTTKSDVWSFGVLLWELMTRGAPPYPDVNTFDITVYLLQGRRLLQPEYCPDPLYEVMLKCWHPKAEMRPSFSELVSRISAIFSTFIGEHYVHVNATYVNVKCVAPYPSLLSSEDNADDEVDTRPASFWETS
Sequence of PLK4/SAK (O00444 whole entry): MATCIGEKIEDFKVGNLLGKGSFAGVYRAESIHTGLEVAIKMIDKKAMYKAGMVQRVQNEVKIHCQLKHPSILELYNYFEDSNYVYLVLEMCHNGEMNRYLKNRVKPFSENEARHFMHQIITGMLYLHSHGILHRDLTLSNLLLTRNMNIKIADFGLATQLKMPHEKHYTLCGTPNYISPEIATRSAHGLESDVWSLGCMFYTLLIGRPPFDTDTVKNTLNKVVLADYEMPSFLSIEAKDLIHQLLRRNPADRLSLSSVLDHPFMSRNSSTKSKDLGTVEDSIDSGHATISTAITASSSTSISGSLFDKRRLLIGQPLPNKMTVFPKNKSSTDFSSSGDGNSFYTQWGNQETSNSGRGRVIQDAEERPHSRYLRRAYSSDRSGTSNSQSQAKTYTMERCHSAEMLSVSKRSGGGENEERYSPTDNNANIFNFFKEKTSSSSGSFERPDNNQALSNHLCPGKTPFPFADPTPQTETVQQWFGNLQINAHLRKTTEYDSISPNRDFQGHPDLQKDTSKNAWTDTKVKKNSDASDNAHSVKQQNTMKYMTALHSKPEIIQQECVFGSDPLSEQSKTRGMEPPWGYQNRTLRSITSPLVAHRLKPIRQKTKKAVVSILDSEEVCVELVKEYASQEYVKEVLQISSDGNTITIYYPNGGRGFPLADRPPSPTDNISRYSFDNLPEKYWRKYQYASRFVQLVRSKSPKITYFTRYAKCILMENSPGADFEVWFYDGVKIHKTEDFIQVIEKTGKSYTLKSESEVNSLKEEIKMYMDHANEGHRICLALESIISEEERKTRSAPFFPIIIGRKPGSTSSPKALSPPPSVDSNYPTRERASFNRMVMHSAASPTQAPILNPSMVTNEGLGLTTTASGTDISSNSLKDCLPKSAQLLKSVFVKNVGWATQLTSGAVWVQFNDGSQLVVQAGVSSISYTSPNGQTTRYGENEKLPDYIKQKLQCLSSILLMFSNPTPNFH

## COc1cc2c(Oc3ccc(NC(=O)C4(C(=O)Nc5ccc(F)cc5)CC4)cc3)ccnc2cc1OC(=O)N1CCN(C)CC1 [Compound 1-10]
c-MET
  IC50: < 100 nM
PLK4/SAK
  IC50: > 1000 nM
TYRO3/SKY
  IC50: 100 to 1000 nM
